Experimental findings from PubChem BioAssay (NCI) are described below.

Test systems include HCT-15 colon; SK-MEL-5 melanoma; SW-620 colon; OVCAR-5 ovarian; PC-3 prostate; RXF 393 renal; U251 CNS; NCI/ADR-RES ovarian; T-47D breast; NCI-H460 lung.
Assay in all cases: NCI-60 cell line screen, 48 h

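Test compounds were applied to cells in 96-well plates for 48 hours at 5 doses. Here, GI50 denotes the concentration required for 50% inhibition of growth. TGI marks complete inhibition of growth.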

As for `O=C(N/N=C/c1ccc([N+](=O)[O-])cc1)c1ccc2nc(-c3ccc(Cl)cc3)[nH]c2c1`, the GI50 is 2.6 µM with HCT-15 colon; 2.11 µM with SK-MEL-5 melanoma; 3.44 µM in the assay on SW-620 colon; 4.43 µM in the assay with OVCAR-5 ovarian; 0.42 µM with PC-3 prostate; 2.03 µM in the assay with RXF 393 renal. Besides, the GI50 in the assay with U251 CNS is 2.91 µM; with NCI/ADR-RES ovarian, 12.6 µM; in the assay with T-47D breast, 2.29 µM; in the assay on NCI-H460 lung, 2.1 µM. In addition, the TGI is 13 µM in the assay on HCT-15 colon; 4.78 µM with SK-MEL-5 melanoma; 10.8 µM in the assay on SW-620 colon; 37.8 µM in the assay on OVCAR-5 ovarian; 15.3 µM in the assay on PC-3 prostate; 7.07 µM with RXF 393 renal. Also, the TGI in the assay with U251 CNS was 10.8 µM; with NCI/ADR-RES ovarian, above 100 µM; in the assay with T-47D breast, 7.21 µM; in the assay on NCI-H460 lung, 4.49 µM.

In the case of `Cc1cc(C)c(O)c(CN(C)Cc2cc(Cl)cc(Cl)c2O)c1`, the GI50 in the assay with HCT-15 colon is 3.41 µM; in the assay on SK-MEL-5 melanoma, 5.57 µM; with SW-620 colon it was 3.71 µM; in the assay with OVCAR-5 ovarian it was 6.12 µM; in the assay with PC-3 prostate it was 6.97 µM; with RXF 393 renal it was 7.34 µM. Besides, the GI50 with U251 CNS is 4.01 µM; in the assay on NCI/ADR-RES ovarian, 2.89 µM; with T-47D breast it was 4.07 µM; in the assay on NCI-H460 lung it was 3.49 µM. The TGI in the assay on HCT-15 colon was 16.8 µM; in the assay on SK-MEL-5 melanoma, 18.2 µM; in the assay on SW-620 colon, 14.3 µM; in the assay with OVCAR-5 ovarian, 20.5 µM; in the assay on PC-3 prostate, 42.3 µM; in the assay with RXF 393 renal, 23.6 µM. For the same compound, the TGI with U251 CNS was 17.1 µM; with NCI/ADR-RES ovarian, 12.5 µM; in the assay with T-47D breast, 15.2 µM; in the assay on NCI-H460 lung it was 13.7 µM.

Take `COc1ccc(C(=O)c2cc3c(OC)c(OC)c(OC)cc3[nH]2)cc1`: the GI50 in the assay with HCT-15 colon was 2.23 µM; with SK-MEL-5 melanoma it was 2.2 µM; in the assay on SW-620 colon it was 5.87 µM; in the assay on OVCAR-5 ovarian, 66.9 µM; in the assay on PC-3 prostate, above 100 µM; in the assay with RXF 393 renal it was 10.2 µM. The GI50 in the assay on U251 CNS is 5.2 µM; in the assay with NCI/ADR-RES ovarian, 3.2 µM; with T-47D breast it was 4.53 µM; in the assay on NCI-H460 lung, 3.26 µM. Further, the TGI with HCT-15 colon is above 100 µM; in the assay with SK-MEL-5 melanoma, 5.62 µM; with SW-620 colon it was above 100 µM; with OVCAR-5 ovarian, above 100 µM; with PC-3 prostate, above 100 µM; in the assay with RXF 393 renal it was 95.7 µM. Further, the TGI with U251 CNS is above 100 µM; in the assay with NCI/ADR-RES ovarian it was 40.9 µM; in the assay with T-47D breast it was above 100 µM; in the assay on NCI-H460 lung, above 100 µM.

On to `C=CC1CC12C(=O)C1OC2(C)C2C(=O)c3c(O)ccc(O)c3C(=O)C12` (stereo not given), for which the GI50 in the assay with HCT-15 colon was 2 µM; in the assay on SK-MEL-5 melanoma, 1.86 µM; with SW-620 colon, 2.32 µM; in the assay on OVCAR-5 ovarian, 5.69 µM; in the assay with PC-3 prostate it was 4.72 µM; with RXF 393 renal, 2.11 µM. The GI50 with U251 CNS was 4.3 µM; in the assay with NCI/ADR-RES ovarian, 3.76 µM; with T-47D breast, 2.56 µM; in the assay on NCI-H460 lung, 7.09 µM. Also, the TGI in the assay on HCT-15 colon was 5.05 µM; in the assay on SK-MEL-5 melanoma it was 4.97 µM; with SW-620 colon, 5.88 µM; in the assay on OVCAR-5 ovarian it was 12 µM; in the assay with PC-3 prostate, 15.3 µM; in the assay with RXF 393 renal, 5.3 µM. Besides, the TGI in the assay on U251 CNS is 12.6 µM; in the assay with NCI/ADR-RES ovarian it was 12.1 µM; in the assay on T-47D breast it was 14.1 µM; in the assay with NCI-H460 lung, 23.7 µM.

Consider `O=c1[nH]cnc2[nH]ncc12`, for which the GI50 was 143 µM in the assay with HCT-15 colon; 1200 µM with SK-MEL-5 melanoma; 356 µM with SW-620 colon; 486 µM in the assay with OVCAR-5 ovarian; 253 µM in the assay on PC-3 prostate; 266 µM with RXF 393 renal. For the same compound, the GI50 in the assay with U251 CNS was 1560 µM; in the assay with NCI/ADR-RES ovarian, 214 µM; in the assay with T-47D breast it was 698 µM; in the assay with NCI-H460 lung it was 1510 µM. The TGI is above 5000 µM in the assay on HCT-15 colon; above 5000 µM in the assay on SK-MEL-5 melanoma; above 5000 µM in the assay on SW-620 colon; above 1550 µM in the assay on OVCAR-5 ovarian; above 5000 µM in the assay with PC-3 prostate; above 5000 µM in the assay on RXF 393 renal. Further, the TGI in the assay with U251 CNS is above 4470 µM; in the assay with NCI/ADR-RES ovarian, above 1250 µM; in the assay on T-47D breast it was above 5000 µM; in the assay with NCI-H460 lung, above 5000 µM.

On to `O=C(Nc1ccccc1O)c1ccc(Oc2cccc(C(=O)Nc3ccccc3O)c2)cc1`, for which the GI50 with HCT-15 colon was 2.52 µM; with SK-MEL-5 melanoma, 1.13 µM; with SW-620 colon, 3.42 µM; with OVCAR-5 ovarian it was 12.9 µM; in the assay with PC-3 prostate, 1.84 µM; in the assay on RXF 393 renal it was 1.81 µM. For the same compound, the GI50 with U251 CNS is 2.13 µM; in the assay with NCI/ADR-RES ovarian, 1.5 µM; in the assay on T-47D breast it was 3.13 µM; in the assay on NCI-H460 lung, 1.21 µM. Further, the TGI came to 12.3 µM in the assay on HCT-15 colon; 2.85 µM in the assay on SK-MEL-5 melanoma; 12.7 µM in the assay on SW-620 colon; 35 µM in the assay on OVCAR-5 ovarian; 10.4 µM in the assay on PC-3 prostate; 6.42 µM in the assay on RXF 393 renal. The TGI came to 8.16 µM in the assay with U251 CNS, 6.7 µM in the assay with NCI/ADR-RES ovarian, 10.1 µM in the assay with T-47D breast and 11 µM in the assay with NCI-H460 lung.

As for `O=C(N/N=C/c1ccccc1O)C(=O)Nc1ccc(F)cc1`, the GI50 was 1.86 µM in the assay on HCT-15 colon; 5.62 µM with SK-MEL-5 melanoma; 6.26 µM in the assay on SW-620 colon; 6.69 µM with OVCAR-5 ovarian; 4.21 µM with PC-3 prostate; 9.93 µM with RXF 393 renal. Moreover, the GI50 with U251 CNS was 2.75 µM; with NCI/ADR-RES ovarian, 3 µM; in the assay on T-47D breast, 6.63 µM; in the assay with NCI-H460 lung, 2.74 µM. Besides, the TGI in the assay with HCT-15 colon, with SK-MEL-5 melanoma, in the assay on SW-620 colon, with OVCAR-5 ovarian, with PC-3 prostate and in the assay on RXF 393 renal was above 100 µM in each case. For the same compound, the TGI in the assay on U251 CNS, in the assay on NCI/ADR-RES ovarian, in the assay on T-47D breast and in the assay with NCI-H460 lung was above 100 µM throughout.
